Assay results published in patent US7803558B2, “Modulation of aqueous humor outflow by targeting vascular-endothelial-cadherin in Schlemm's canal cells” (The Arizona Board of Regents on behalf of the University of …, priority 2003, dated 2010).
Read-outs that look alike come from different tables or passages of the source.

What was measured:
MDCK cell monolayers [1] = test system: MDCK cell monolayers
Protocol: (§1) MDCK Cells: Madin-Darby Canine Kidney cells (MDCK), were used as a control to characterize perfusion system and for comparisons to SC monolayers. […] MDCK cells thus served as a positive control for comparisons with SC cells in subsequent experiments. MDCK Cells used in the present study were a gift from Dr. Ronald Lynch (University of Arizona) and were used between passages 14-16. Cells were grown in DMEM and maintained in humidified air containing 5% CO2 at 37° C. for at least three weeks after reaching confluence before experimentation.
(§2) Transendothelial electrical resistance (TEER) of cell monolayers cultured on Snapwell filters was measured using a TEER measurement chamber (ENDOHM-24; World Precision Instruments) in conjunction with an epithelial voltohmmeter (EVOM; World Precision Instruments). Following three rinses with prewarmed 20 mM HEPES (Sigma, St. Louis, Mo.) buffered DMEM (serum-free, pH 7.4; HEPES-DMEM), filters were carefully transferred to the TEER measurement chamber filled with HEPES-DMEM. […] Pressure in the upstream compartment was generated by an elevated reservoir of HEPES-DMEM, with pressure recorded using a pressure transducer (AH 60-3002; Harvard Apparatus, Holliston, Mass.), while the downstream compartment was vented to atmospheric pressure. The rate of fluid flow through the chamber was calculated from the weight change per unit time of the reservoir measured using an isometric transducer (AH 60-2994; Harvard Apparatus). Pressure and weight data were recorded simultaneously at 30 times/sec onto hard drive of computer using a Data Acquisition System (MP100WSW; Biopac Systems, Inc., Santa Barbara, Calif.).
(§3) Once stable TEER was achieved, a valve between the reservoir and chamber was opened to expose the upstream chamber to pressure. TEER, flow, and pressure measurements were recorded for 20 minutes to establish baseline values. […] The medium in the upstream chamber was then exchanged with […] HEPES-DMEM at a rate of 2.5 ml/min, and a second 10-minute baseline period was measured.

[2] = test system: human Schlemm's canal (SC) cell monolayers
Protocol: (§4) SC Cells: Human cadaveric eye tissue was obtained from Donor Network of Arizona, San Diego Lions Eye Bank or North Carolina Lions Eye Bank within 48 hours of death for whole eyes stored in moist chambers, and within 96 hours for non-transplantable corneal anterior segments stored in Optisol (Chiron Vision, Clairmont, Calif.). Human SC cells were isolated from the cadaveric eye tissue using gelatin-coated cannulas, as described previously (Stamer W D, et al Invest Opthalmol Vis Sci 1998; 39:1804-1812) or by differential dissection (O'Brien E, Invest. Opthalmol. Vis. Sci. 2000; 41:3842-3849). Cells used in perfusion studies were isolated by both methods while only cells isolated by differential dissection were used in morphology experiments. Cells were grown and maintained in Dulbecco's Modified Eagle Medium (DMEM) and maintained in humidified air containing 5% CO2 at 37° C., as described previously (Stamer W D, et al Invest Opthalmol Vis Sci 1998; 39:1804-1812). Human SC cells were seeded at 100,000 cells/cm^2onto 1-cm^2 Snapwell Filters (Snapwell; Costar, Acton, Mass.) with 0.4-μm pore diameter in 10% FBS/DMEM. Primary cultures of eight SC cell strains were isolated from eight different cadaveric eyes without a history of glaucoma and used in the present study (SC3, SC6, SC10, SC11, SC41, SC42, SC 57 and SC68).
as §2, with “Instruments).” for “Instruments). Following three rinses with prewarmed 20 mM HEPES (Sigma, St. Louis, Mo.) buffered DMEM (serum-free, pH 7.4; HEPES-DMEM), filters were carefully transferred to the TEER measurement chamber filled with HEPES-DMEM.”
as §3

[3] = test system: MDCK cell monolayers (cell borders); settings: by 60 seconds after Na2EDTA, data not shown
Protocol: as §1

MDCK cell monolayers [4] = test system: MDCK cell monolayers; remark: listed apart in the source
Protocol: as §1
Transendothelial electrical resistance (TEER) of cell monolayers cultured on Snapwell filters was measured using a TEER measurement chamber (ENDOHM-24; World Precision Instruments) in conjunction with an epithelial voltohmmeter (EVOM; World Precision Instruments). Following three rinses with prewarmed 20 mM HEPES (Sigma, St. Louis, Mo.) buffered DMEM (serum-free, pH 7.4; HEPES-DMEM), filters were carefully transferred to the TEER measurement chamber filled with HEPES-DMEM. […] The Snapwell filters containing the cell monolayers were then carefully placed into an Ussing-type chamber (Ussing system CHM5; World Precision Instruments, Sarasota, Fla.) filled with HEPES-DMEM and maintained at 37° C. in an air incubator for 15 minutes prior to pressure application. Filters were oriented such that the apical surface of cell monolayers faced the upstream chamber. Flow through cell monolayers was a function of the pressure gradient between the upstream and downstream compartments of the chamber. Pressure in the upstream compartment was generated by an elevated reservoir of HEPES-DMEM, with pressure recorded using a pressure transducer (AH 60-3002; Harvard Apparatus, Holliston, Mass.), while the downstream compartment was vented to atmospheric pressure. The rate of fluid flow through the chamber was calculated from the weight change per unit time of the reservoir measured using an isometric transducer (AH 60-2994; Harvard Apparatus). Pressure and weight data were recorded simultaneously at 30 times/sec onto hard drive of computer using a Data Acquisition System (MP100WSW; Biopac Systems, Inc., Santa Barbara, Calif.).
as §3
Hydraulic conductivity was measured continuously and TEER measurements were then taken every five minutes for the duration of the trial.

[5] = test system: human Schlemm's canal (SC) cell monolayers; remark: listed apart in the source
Protocol: as §4, §2
Once stable TEER was achieved, a valve between the reservoir and chamber was opened to expose the upstream chamber to pressure. TEER, flow, and pressure measurements were recorded for 20 minutes to establish baseline values.

[6] = test system: SC cell monolayers (cell margins)
Protocol: as §4

## O=C([O-])CN(CCN(CC(=O)[O-])CC(=O)O)CC(=O)O.[Na+].[Na+] [Na2EDTA]
MDCK cell monolayers [1]; 25 mM Na2EDTA for 5 min, 14-16 mm Hg, n=4, +/- SEM
  average rate of TEER decrease after Na2EDTA treatment: 1.9 (+/−0.12 SEM) Ωcm^2/min
MDCK cell monolayers [1]; 25 mM Na2EDTA, p=0.06
  change in TEER relative to baseline in presence of pressure (paired t-test): approached significance
MDCK cell monolayers [1]; after 25 mM Na2EDTA for 5 min
  average rate of change of TEER following rinse with normal medium: not significantly different from pre-Na2EDTA rates
[2]; SC monolayers, 0.5-2 mM Na2EDTA, n=6
  impact of lower concentrations on HC or TEER: not to impact significantly
[2]; SC monolayers, titration experiments, time course of the experiments, n=13-15, data not shown
  minimum Na2EDTA needed to effect both hydraulic conductivity and TEER: 5 mM
[2]; SC, paired t-test, p<0.05
  percent change in HC relative to baseline following Na2EDTA treatment versus percent change between the two baseline measurements: significantly greater
  percent change in HC relative to baseline following post-Na2EDTA rinse versus percent change between the two baseline measurements: significantly greater
[3]
  effect on cell borders: retracted
MDCK cell monolayers [4]; MDCK cell monolayers, perfusion experiments
  recovery of TEER and hydraulic conductivity shortly after washout of Na2EDTA: partial recovery
MDCK cell monolayers [4]; MDCK cell monolayers, titration experiments, time course of the experiments, n=13-15, data not shown
  minimum Na2EDTA required to effect both hydraulic conductivity and TEER: 25 mM
MDCK cell monolayers [4]; MDCK, paired t-test
  percent change in HC relative to baseline following post-Na2EDTA rinse versus percent change between the two baseline measurements: not
MDCK cell monolayers [4]; MDCK, paired t-test, p<0.05
  percent change in HC relative to baseline following Na2EDTA treatment versus percent change between the two baseline measurements: significantly greater
[5]; SC monolayers, functionally via TEER measurements
  time required for functional return after washout of Na2EDTA: 2 h
[5]; SC, 5 mM Na2EDTA
  change in TEER decrease relative to 30-minute baseline in presence of pressure (paired t-test): no significant change
[5]; SC, 5 mM Na2EDTA for 5 min, 4-6 mm Hg, n=5, +/- SEM
  average rate of TEER decrease after Na2EDTA treatment: 0.34 (+/−0.26 SEM) Ωcm^2/min
[5]; SC, after 5 mM Na2EDTA for 5 min
  average rate of change of TEER following rinse with normal medium: not significantly different from pre-Na2EDTA rates
[6]; 10 mM Na2EDTA for 5 minutes, then normal medium, data not shown
  time required for cell margins to return to original position / cell-cell contacts to return visually after replacement of normal medium: about 30 minutes
[6]; 60 seconds after addition of 10 mM Na2EDTA
  retraction of cell margins from each other: about 2 μm
[6]; 90 seconds after addition of 10 mM Na2EDTA
  retraction of cell margins from each other: about 3 μm
